Data on 11 molecules can be found in PubChem BioAssay (NCI).

Some test systems named below: BT-549 breast; CCRF-CEM leukemia; COLO 205 colon; HCC-2998 colon; HCT-116 colon; HL-60(TB) leukemia; HS 578T breast; IGROV1 ovarian; KM12 colon; MALME-3M melanoma; MDA-N; NCI-H460 lung; OVCAR-3 ovarian; OVCAR-4 ovarian; SK-MEL-5 melanoma; SN12C renal; SW-620 colon; TK-10 renal; UACC-257 melanoma; UACC-62 melanoma.
Assay in all cases: inhibition of tumour cell growth, NCI panel, 48 h

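96-well plates; 48 h exposure; 5 concentrations. Endpoints by linear interpolation between flanking doses. Not reached: highest tested concentration assigned. TGI marks complete inhibition of growth.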

In the case of `Cn1c(=O)c2nc3c(=O)n(C)c(=O)n(CC(N)=O)c3nc2n(C)c1=O`, the TGI in the experiment with BT-549 breast, with CCRF-CEM leukemia, with COLO 205 colon, with HCC-2998 colon, in the experiment with HCT-116 colon and in the experiment on HL-60(TB) leukemia was above 100 µM each time. The TGI with HS 578T breast, in the experiment on IGROV1 ovarian, with KM12 colon, in the experiment on MALME-3M melanoma, in the experiment with MDA-N and with NCI-H460 lung was above 100 µM throughout. Moreover, the TGI in the experiment with OVCAR-3 ovarian, in the experiment on OVCAR-4 ovarian, with SK-MEL-5 melanoma, with SN12C renal, in the experiment on SW-620 colon and in the experiment with TK-10 renal was above 100 µM each time. In addition, the TGI in the experiment with UACC-257 melanoma and in the experiment with UACC-62 melanoma was above 100 µM in each case.
Take `CC(=O)NCCCCN(CCCNC(C)=O)C(=O)CNS(=O)(=O)c1cccc2c(N(C)C)cccc12`: the TGI in the experiment on BT-549 breast, in the experiment with CCRF-CEM leukemia, in the experiment with COLO 205 colon, in the experiment on HCC-2998 colon, in the experiment on HCT-116 colon and in the experiment on HL-60(TB) leukemia was above 100 µM each time. In addition, the TGI in the experiment on HS 578T breast, in the experiment with IGROV1 ovarian, in the experiment with MALME-3M melanoma, in the experiment with MDA-N, with NCI-H460 lung and with OVCAR-3 ovarian was above 100 µM each time. The TGI with OVCAR-4 ovarian, in the experiment on SK-MEL-5 melanoma, in the experiment on SN12C renal, in the experiment with SW-620 colon, with TK-10 renal and in the experiment on UACC-257 melanoma was above 100 µM in each case. Besides, the TGI with UACC-62 melanoma is above 100 µM.
On to `CCOC(=O)c1ccc(C(=O)n2ccnc2)[nH]1`, for which the TGI in the experiment on BT-549 breast, in the experiment with CCRF-CEM leukemia, with COLO 205 colon, with HCC-2998 colon, in the experiment on HCT-116 colon and with HL-60(TB) leukemia was above 100 µM in each case. Further, the TGI with HS 578T breast, in the experiment on IGROV1 ovarian, in the experiment on KM12 colon, with MALME-3M melanoma, with MDA-N and with NCI-H460 lung was above 100 µM in each case. In addition, the TGI in the experiment on OVCAR-3 ovarian, in the experiment with OVCAR-4 ovarian, with SK-MEL-5 melanoma, with SN12C renal, in the experiment with SW-620 colon and in the experiment with TK-10 renal was above 100 µM each time. In addition, the TGI in the experiment with UACC-257 melanoma and in the experiment with UACC-62 melanoma was above 100 µM each time.
Turning to `O=C1OC(C2Cc3ccc4c(c3C2=O)CCC4)c2ccccc21` (stereo not drawn), the TGI was above 100 µM in the experiment with BT-549 breast; above 100 µM in the experiment with CCRF-CEM leukemia; 45.8 µM with COLO 205 colon; above 100 µM in the experiment with HCC-2998 colon; above 100 µM with HCT-116 colon; 83.1 µM in the experiment with HL-60(TB) leukemia. The TGI in the experiment with HS 578T breast, in the experiment on IGROV1 ovarian, in the experiment on KM12 colon, with MALME-3M melanoma, in the experiment on MDA-N and in the experiment with NCI-H460 lung was above 100 µM in each case. The TGI in the experiment on OVCAR-3 ovarian, in the experiment with OVCAR-4 ovarian, with SK-MEL-5 melanoma, in the experiment on SN12C renal, with SW-620 colon and in the experiment on TK-10 renal was above 100 µM in each case. Also, the TGI in the experiment with UACC-257 melanoma and in the experiment with UACC-62 melanoma was above 100 µM throughout.
In the case of `COc1ccc2c(c1)-c1c(c3cc(OC)ccc3n1CCCN(C)C)CC2`, the TGI with BT-549 breast is 32.2 µM; in the experiment on CCRF-CEM leukemia it was 14.1 µM; in the experiment with COLO 205 colon it was 5.9 µM; with HCC-2998 colon, 10.2 µM; in the experiment on HCT-116 colon, 51.1 µM; in the experiment on HL-60(TB) leukemia, 55.3 µM. For the same molecule, the TGI with HS 578T breast is 20.5 µM; with IGROV1 ovarian, above 36.2 µM; in the experiment on KM12 colon, 21.8 µM; with MALME-3M melanoma it was 5.47 µM; with MDA-N it was 16 µM; in the experiment with NCI-H460 lung, 42.9 µM. For the same molecule, the TGI was 29.6 µM in the experiment on OVCAR-3 ovarian; 30.8 µM with OVCAR-4 ovarian; 8.29 µM in the experiment on SK-MEL-5 melanoma; 28.5 µM with SN12C renal; 32.1 µM in the experiment on SW-620 colon; 39.7 µM in the experiment with TK-10 renal. Also, the figures for the TGI in the experiment on UACC-257 melanoma and in the experiment with UACC-62 melanoma were 11.6 µM and 20.6 µM, respectively.
For the molecule `COC(=O)c1ccccc1CC1Cc2cc3c(cc2C1=O)CCC3` (stereo not drawn), the TGI is 31.8 µM in the experiment with BT-549 breast; 62.7 µM with CCRF-CEM leukemia; 28.4 µM with COLO 205 colon; above 100 µM in the experiment with HCC-2998 colon; 29.9 µM in the experiment on HCT-116 colon; 27.6 µM in the experiment with HL-60(TB) leukemia. Further, the TGI in the experiment with HS 578T breast was 86.6 µM; in the experiment on IGROV1 ovarian it was above 100 µM; in the experiment with KM12 colon, above 100 µM; in the experiment on MALME-3M melanoma, 69.2 µM; in the experiment with MDA-N it was 10.7 µM; with NCI-H460 lung, above 71.4 µM. For the same molecule, the TGI is above 76.5 µM in the experiment with OVCAR-3 ovarian; above 93.3 µM with OVCAR-4 ovarian; 20.9 µM in the experiment on SK-MEL-5 melanoma; above 67.2 µM in the experiment with SN12C renal; above 100 µM with SW-620 colon; 79.7 µM in the experiment with TK-10 renal. In addition, the TGI in the experiment with UACC-257 melanoma was determined as 71.5 µM; in the experiment with UACC-62 melanoma, 69.6 µM.
`O=C(O)CC(NC(=O)/C(=C/c1ccccc1)NC(=O)c1ccccc1)C(=O)O` (stereo not drawn): the TGI in the experiment on BT-549 breast, in the experiment on CCRF-CEM leukemia, with COLO 205 colon, with HCC-2998 colon, with HCT-116 colon and in the experiment on HL-60(TB) leukemia was above 100 µM throughout. The TGI in the experiment on HS 578T breast, in the experiment with IGROV1 ovarian, in the experiment with KM12 colon, in the experiment with MALME-3M melanoma, in the experiment on MDA-N and in the experiment on NCI-H460 lung was above 100 µM each time. The TGI with OVCAR-3 ovarian, in the experiment with OVCAR-4 ovarian, in the experiment on SK-MEL-5 melanoma, in the experiment on SN12C renal, with SW-620 colon and in the experiment on TK-10 renal was above 100 µM each time. Besides, the TGI in the experiment with UACC-257 melanoma and in the experiment on UACC-62 melanoma was above 100 µM in each case.
For `Cc1cc2nc(C=C(C(F)(F)F)C(F)(F)F)sc2cc1C`, the TGI in the experiment on BT-549 breast was 4.64 µM; in the experiment with CCRF-CEM leukemia it was above 100 µM; with COLO 205 colon, 13.7 µM; with HCC-2998 colon, 8.36 µM; in the experiment with HCT-116 colon, 2.93 µM; with HL-60(TB) leukemia it was 3.86 µM. Besides, the TGI in the experiment on HS 578T breast is 9.69 µM; in the experiment on IGROV1 ovarian it was 7.78 µM; in the experiment with KM12 colon, 4.41 µM; with MALME-3M melanoma it was 4.56 µM; with MDA-N it was above 19.8 µM; in the experiment with NCI-H460 lung it was 16 µM. Moreover, the TGI with OVCAR-3 ovarian came to 5.63 µM; in the experiment with OVCAR-4 ovarian, 14.9 µM; in the experiment with SK-MEL-5 melanoma it was 8.77 µM; in the experiment on SN12C renal, 1.63 µM; with SW-620 colon it was 10.7 µM; in the experiment on TK-10 renal it was 5.91 µM. Besides, the figures for the TGI in the experiment with UACC-257 melanoma and in the experiment on UACC-62 melanoma were 13.6 µM and 4.98 µM, respectively.
Take `O=C(O)c1ccccc1CC1Cc2cc3c(cc2C1)CCC3`: the TGI in the experiment with BT-549 breast, in the experiment with CCRF-CEM leukemia, with COLO 205 colon, in the experiment with HCC-2998 colon, with HCT-116 colon and with HL-60(TB) leukemia was above 100 µM throughout. In addition, the TGI with HS 578T breast, with IGROV1 ovarian, in the experiment on KM12 colon, in the experiment with MALME-3M melanoma, in the experiment with MDA-N and with NCI-H460 lung was above 100 µM in each case. Moreover, the TGI in the experiment on OVCAR-3 ovarian, with OVCAR-4 ovarian, with SK-MEL-5 melanoma, with SN12C renal, with SW-620 colon and in the experiment on TK-10 renal was above 100 µM each time. The TGI in the experiment on UACC-257 melanoma and in the experiment on UACC-62 melanoma was above 100 µM in each case.
On to `COc1cc2c(c(O)c1OC)C(=O)[C@@H]1CCC(=O)N1C2c1ccccc1` (stereo partly drawn), for which the TGI in the experiment on BT-549 breast, in the experiment on CCRF-CEM leukemia, with COLO 205 colon, in the experiment on HCC-2998 colon, in the experiment with HCT-116 colon and in the experiment on HL-60(TB) leukemia was above 100 µM throughout. For the same molecule, the TGI with HS 578T breast, in the experiment on IGROV1 ovarian, with KM12 colon, with MALME-3M melanoma, in the experiment with MDA-N and with NCI-H460 lung was above 100 µM each time. Further, the TGI in the experiment on OVCAR-3 ovarian, in the experiment with OVCAR-4 ovarian, with SN12C renal, with SW-620 colon, in the experiment with TK-10 renal and in the experiment on UACC-257 melanoma was above 100 µM each time. This molecule also registered a TGI in the experiment with UACC-62 melanoma above 100 µM.
Turning to `N/N=C(\c1nc2ccc([N+](=O)[O-])cc2[nH]c1=O)C(O)c1ccc(Cl)c(Cl)c1` (stereo not drawn), the TGI in the experiment with BT-549 breast, in the experiment with CCRF-CEM leukemia, with COLO 205 colon, in the experiment with HCC-2998 colon, in the experiment with HCT-116 colon and in the experiment on HL-60(TB) leukemia was above 100 µM in each case. Moreover, the TGI with HS 578T breast, in the experiment with IGROV1 ovarian, in the experiment with KM12 colon, with MALME-3M melanoma, in the experiment with MDA-N and in the experiment on NCI-H460 lung was above 100 µM throughout. The TGI with OVCAR-3 ovarian, in the experiment on OVCAR-4 ovarian, in the experiment on SK-MEL-5 melanoma, in the experiment with SN12C renal, with SW-620 colon and in the experiment with TK-10 renal was above 100 µM in each case. The TGI in the experiment on UACC-257 melanoma and in the experiment with UACC-62 melanoma was above 100 µM throughout.
